# Values of other authors in patent US20240050950A1, “GRADIENT-BASED MICROFLUIDIC CIRCUIT, DEVICE, AND METHOD FOR PERFORMING AN ASSAY” (priority 2020, published 2024).
# Counter-ions that a name gives are not always drawn.
# Conditions: Table 1, antimicrobial agents/drugs; cited from earlier work
row,SMILES,Molar volume [cm^3]
1,"CCN1CCN(c2cc3c(cc2F)c(=O)c(C(=O)O)cn3C2CC2)CC1 [Enrofloxacin (Baytril), Enrofloxacin]",259.3 ± 3.0
2,"CC[C@@H](CO)NCCN[C@@H](CC)CO [Ethambutol ((+)-S,S-Ethambutol), Ethambutol]",207.0 ± 3.0
3,COc1cc([C@@H]2c3cc4c(cc3[C@@H](O[C@@H]3O[C@@H]5CO[C@@H](C)O[C@H]5[C@H](O)[C@H]3O)[C@H]3COC(=O)[C@H]23)OCO4)cc(OC)c1O [Etoposide],378.5 ± 5.0
4,"CS(=O)(=O)c1ccc([C@@H](O)[C@@H](CF)NC(=O)C(Cl)Cl)cc1 [Florfenicol (Aquafen, Nuflor), Florfenicol]",246.7 ± 3.0
5,"COC(=O)Nc1nc2cc(C(=O)c3ccc(F)cc3)ccc2[nH]1 [Flubendazol (Flumoxanal), Flubendazol]",216.8 ± 3.0
6,OC(Cn1cncn1)(Cn1cncn1)c1ccc(F)cc1F [Fluconazole],205.2 ± 7.0
7,CC(C(=O)O)c1ccc(-c2ccccc2)c(F)c1 (stereo not shown) [Flurbiprofen],203.6 ± 3.0
8,Nc1ncnc2c([C@@H]3O[C@H](CO)[C@@H](O)[C@H]3O)[nH]nc12 [Formycin A],128.1 ± 7.0
9,CO[C@@H]1[C@H](OC(=O)/C=C/C=C/C=C/C=C/C(=O)O)CC[C@]2(CO2)[C@H]1[C@@]1(C)O[C@@H]1CC=C(C)C [Fumagillin],383.2 ± 5.0
10,"CCCCc1ccc(C(=O)O)nc1 [Fusaric acid (5-Butylpicolinic acid), 5-Butylpicolinic acid]",161.0 ± 3.0
11,CN[C@@H]1[C@@H](O)[C@@H](O[C@@H]2[C@@H](O)[C@H](O[C@H]3O[C@H]([C@@H](C)O)[C@@H](O)[C@H](O)[C@H]3N)[C@@H](N)C[C@H]2N)OC[C@]1(C)O [G 418],336.3 ± 5.0
12,Nc1nc(O)c2ncn(COC(CO)CO)c2n1 [Ganciclovir],140.5 ± 7.0
13,COc1c(N2CCNC(C)C2)c(F)cc2c(=O)c(C(=O)O)cn(C3CC3)c12 (stereo not shown) [Gatifloxacin],270.7 ± 3.0
14,CN1C(=O)[C@]23CC4=CC=C[C@H](O)[C@H]4N2C(=O)[C@@]1(CO)SS3 [Gliotoxin],186.5 ± 5.0
15,COC1=CC(=O)C[C@@H](C)[C@]12Oc1c(Cl)c(OC)cc(OC)c1C2=O [Griseofulvin],255.1 ± 5.0
16,CO[C@H]1[C@@H](OC)C[C@H](C)[C@@H](OC)C2=CC(=O)C=C(NC(=O)/C(C)=C/C=C\[C@H](OC)[C@@H](OC(N)=O)/C(C)=C/[C@@H]1C)C2=O [Herbimycin A],479.9 ± 5.0
17,C=CCc1ccc(O)c(-c2ccc(O)c(CC=C)c2)c1 [Honokiol],240.4 ± 3.0

# Same assay, conditions: Table 2, anticancer drugs; cited from earlier work
row,SMILES,Molar volume [cm^3]
1,CC(C)(O)CNc1nc(Nc2ccnc(C(F)(F)F)c2)nc(-c2cccc(C(F)(F)F)n2)n1 [Enasidenib Mesylate],320.4 ± 3.0
2,"CNC(=O)c1ccc(N2C(=S)N(c3ccc(C#N)c(C(F)(F)F)c3)C(=O)C2(C)C)cc1F [Enzalutamide (Xtandi), Enzalutamide]",310.0 ± 5.0
3,C=C1C[C@@H]2CC[C@@]34C[C@H]5O[C@H]6[C@@H](O3)[C@H]3O[C@H](CC[C@@H]3O[C@H]6[C@H]5O4)CC(=O)C[C@@H]3[C@@H](OC)[C@@H](C[C@H](O)CN)O[C@H]3C[C@H]3O[C@@H](CC[C@@H]1O2)C[C@@H](C)C3=C [Eribulin Mesylate],563.2 ± 5.0
4,"C#Cc1cccc(Nc2ncnc3cc(OCCOC)c(OCCOC)cc23)c1 [Erlotinib Hydrochloride (Tarceva), Erlotinib Hydrochloride]",315.4 ± 5.0
5,"COc1cc([C@@H]2c3cc4c(cc3[C@@H](O[C@@H]3O[C@@H]5CO[C@@H](C)O[C@H]5[C@H](O)[C@H]3O)[C@H]3COC(=O)[C@H]23)OCO4)cc(OC)c1OP(=O)(O)O [Etopophos (Etoposide Phosphate), Etoposide Phosphate]",406.7 ± 5.0
6,"CN(C)CCOc1ccc(/C(=C(/CCCl)c2ccccc2)c2ccccc2)cc1 [Fareston (Toremifene), Toremifene]",367.6 ± 3.0
7,"C[C@]12CC[C@@H]3c4ccc(O)cc4C[C@@H](CCCCCCCCC[S+]([O-])CCCC(F)(F)C(F)(F)F)[C@H]3[C@@H]1CC[C@@H]2O (stereo partly shown) [Faslodex (Fulvestrant), Fulvestrant]",505.1 ± 3.0
8,"N#Cc1ccc(C(c2ccc(C#N)cc2)n2cncn2)cc1 [Femara (Letrozole), Letrozole]",234.5 ± 7.0
9,"C#CCC(Cc1cnc2nc(N)nc(N)c2n1)c1ccc(C(=O)N[C@@H](CCC(=O)O)C(=O)O)cc1 (stereo partly shown) [Folotyn (Pralatrexate), Pralatrexate]",324.5 ± 3.0
10,"Nc1nc(=O)c2c([nH]1)NCC(CNc1ccc(C(=O)N[C@@H](CCC(=O)[O-])C(=O)[O-])cc1)N2C=O.[Ca+2] (stereo partly shown) [Fusilev (Leucovorin Calcium), Leucovorin Calcium]",280.7 ± 7.0
11,COc1cc2ncnc(Nc3ccc(F)c(Cl)c3)c2cc1OCCCN1CCOCC1 [Gefitinib],337.7 ± 3.0
12,Nc1ccn([C@@H]2O[C@H](CO)[C@@H](O)C2(F)F)c(=O)n1 [Gemcitabine Hydrochloride],142.3 ± 7.0
13,"CN(C)C/C=C/C(=O)Nc1cc2c(Nc3ccc(F)c(Cl)c3)ncnc2cc1O[C@H]1CCOC1 [Gilotrif (Afatinib Dimaleate), Afatinib Dimaleate]",351.9 ± 3.0
14,"CC(C)C[C@H](NC(=O)[C@@H](COC(C)(C)C)NC(=O)[C@H](Cc1ccc(O)cc1)NC(=O)[C@H](CO)NC(=O)[C@H](Cc1c[nH]c2ccccc12)NC(=O)[C@H](Cc1cnc[nH]1)NC(=O)[C@@H]1CCC(=O)N1)C(=O)N[C@@H](CCCNC(=N)N)C(=O)N1CCC[C@H]1C(=O)NNC(N)=O [Goserelin Acetate (Zoladex), Goserelin Acetate]",844.7 ± 7.0
15,CN1C2CCCC1CC(NC(=O)c1nn(C)c3ccccc13)C2 (stereo not shown) [Granisetron],234.8 ± 7.0
16,"CC(C)NCC(O)COc1cccc2ccccc12 (stereo not shown) [Hemangeol (Propranolol Hydrochloride), Propranolol Hydrochloride]",237.1 ± 3.0
17,"CC[C@@]1(O)C(=O)OCc2c1cc1n(c2=O)Cc2cc3c(CN(C)C)c(O)ccc3nc2-1 [Hycamtin (Topotecan Hydrochloride), Topotecan Hydrochloride]",281.3 ± 5.0
18,"NC(=O)NO [Hydrea (Hydroxyurea), Hydroxyurea]",52.1 ± 3.0

# Same assay, conditions: Table 3, antifungal drugs and other molecules; cited from earlier work
row,SMILES,Molar volume [cm^3]
1,Cc1ccc(C(=O)N2CCN(c3ccc([N+](=O)[O-])cc3)CC2)cc1Cl [Filastatin],269.8 ± 3.0
2,CCCCC[C@@H](O)[C@H]1C(=O)O[C@H](C)[C@@H](O)/C=C/C=C/C=C/C=C/C=C(\C)[C@@H](O)C[C@H](O)C[C@H](O)C[C@H](O)C[C@H](O)C[C@H](O)C[C@@H]1O [Filipin],563.7 ± 3.0
3,OC(Cn1cncn1)(Cn1cncn1)c1ccc(F)cc1F [Fluconazole],205.2
4,O=C[C@H](O)[C@@H](O)[C@@H](O)[C@H](O)CO [Galactose],104.0
5,CN(C)c1ccc(C(=C2C=CC(=[N+](C)C)C=C2)c2ccc(N(C)C)cc2)cc1 [Gentian Violet],340.9 ± 5.0
